Measurements: US7163957B2, “3-(Cyclopenten-1-yl)-benzyl-or 3-(cyclopenten-1-yl)-heteroarylmethyl-amine derivatives and use thereof as medicines for treating schizophrenia” (Pierre Fabre Medicament, priority 2002, dated 2007)
Where a name gives a salt, the structure may show the parent alone.

How the values were obtained:
[1] = target: D2 receptors (Homo sapiens, UniProt P14416); test: Affinity for the D2 receptors, displacement of (3H) YM-09151-2; format: binding; settings: for Ki: displacement of (3H) YM-09151-2, mean of at least 3 experiments, read-out: D2 pKi (converted)
Chain of D2 receptors (Homo sapiens, UniProt P14416) (P14416 whole entry): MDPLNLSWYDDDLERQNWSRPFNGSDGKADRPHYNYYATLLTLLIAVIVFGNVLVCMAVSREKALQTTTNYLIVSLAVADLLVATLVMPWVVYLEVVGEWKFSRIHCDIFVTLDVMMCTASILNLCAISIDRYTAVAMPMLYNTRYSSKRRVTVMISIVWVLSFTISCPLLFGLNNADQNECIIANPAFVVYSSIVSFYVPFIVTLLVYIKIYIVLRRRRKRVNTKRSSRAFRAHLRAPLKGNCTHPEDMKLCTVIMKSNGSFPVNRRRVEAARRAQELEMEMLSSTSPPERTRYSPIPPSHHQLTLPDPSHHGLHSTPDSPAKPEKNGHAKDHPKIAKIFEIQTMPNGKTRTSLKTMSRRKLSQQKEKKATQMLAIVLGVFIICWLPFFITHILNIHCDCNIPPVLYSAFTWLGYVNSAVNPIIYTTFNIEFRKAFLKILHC
Source text: 1—Measurement of the affinity of the compounds of the invention for the D2 receptors.
The pKi values, (pKi=−log Ki), are given in the form of the mean±SEM of at least 3 experiments.

[2] = target: T1, 5-HT1A receptors (Homo sapiens, UniProt P08908); test: Affinity for the 5-HT1A receptors, displacement of [3H]8-OH-DPAT; format: binding; settings: for Ki: displacement of [3H]8-OH-DPAT, mean of at least 3 experiments, read-out: 5-HT1A pKi (converted)
T1 sequence (P08908 1-422): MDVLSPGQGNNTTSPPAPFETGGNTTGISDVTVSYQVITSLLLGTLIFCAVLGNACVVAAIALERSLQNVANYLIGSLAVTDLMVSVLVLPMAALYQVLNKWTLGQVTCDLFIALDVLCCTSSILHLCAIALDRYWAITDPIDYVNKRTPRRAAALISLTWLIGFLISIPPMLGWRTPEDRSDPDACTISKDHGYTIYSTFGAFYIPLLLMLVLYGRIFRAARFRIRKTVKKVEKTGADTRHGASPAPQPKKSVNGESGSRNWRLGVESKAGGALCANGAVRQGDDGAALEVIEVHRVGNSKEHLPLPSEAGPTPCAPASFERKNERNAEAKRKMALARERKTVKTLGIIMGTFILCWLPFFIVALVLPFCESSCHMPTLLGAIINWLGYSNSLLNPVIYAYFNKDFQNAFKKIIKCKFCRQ
Description: 2—Measurement of the affinity of the compounds of the invention for the 5-HT1A receptors.
The affinity in vitro of the compounds of the invention for the receptors of the 5-HT1A subtype was determined by measuring the displacement of [^3H]8-OH-DPAT (TRK 850; 160-240 Ci/mmol).
The pKi values, (pKi =−log Ki), are given in the form of the mean±SEM of at least 3 experiments.

[3] = system: D2 receptors; test: Antagonist activity of the D2 receptors in vivo: inhibition of the behavior induced by methylphenidate; settings: Rattus norvegicus, rats, oral route, read-out: Normalization ED50
Source text: 3—Evaluation of the antagonist activity of the D2 receptors in vivo.

[4] = system: catalepsy; test: Cataleptigenic effects (catalepsy); format: in vivo; settings: rats; for ED50: rat, in vivo, oral route; for cataleptigenic effects (in words): high doses (i.e. 40 mg/kg)
Source text: 4—Evaluation of the cataleptigenic effects of the compounds of the invention.

Structure (SMILES)	melting point	affinity for the 5-HT1A receptors (in words) [2]	ED50 [3]	ED50 [4]	further results
CC1(C)Cc2cccc(OCCNCc3cccc(C4=CCCC4)c3)c2O1 (as salt: fumarate) [Compound 1a, [2-(2,2-Dimethyl-2,3-dihydrobenzofuran-7-yloxy)ethyl]-(3-cyclopenten-1-ylbenzyl)amine]	146 °C	–	–	–	–
C1=C(c2cccc(CNCCOc3cccc4ccoc34)c2)CCC1 (as salt: fumarate) [Compound 1c, [2-(Benzofuran-7-yloxy)ethyl]-(3-cyclopenten-1-ylbenzyl)amine]	126 °C	–	–	–	–
CC1(C)Cc2cccc(OCCNCc3cccc(C4=CCCC4)c3)c2O1 [Compound 1a, [2-(2,2-Dimethyl-2,3-dihydrobenzofuran-7-yloxy)ethyl]-(3-cyclopenten-1-ylbenzyl)amine]	–	high affinity	1.3 mg/kg	> 40 mg/kg	Ki [1]: 0.316 nM; Ki [2]: 6.31 nM; cataleptigenic effects (in words) [4]: free of any cataleptigenic effects
C1=C(c2cccc(CNCCOc3cccc4c3OC3(CC3)C4)c2)CCC1 [Compound 1f]	–	high affinity	0.63 mg/kg	> 40 mg/kg	Ki [1]: 0.631 nM; Ki [2]: 6.31 nM; cataleptigenic effects (in words) [4]: free of any cataleptigenic effects
Cc1nc2n(c(=O)c1CCN1CCC(c3noc4cc(F)ccc34)CC1)CCCC2 [Risperidone, risperidone, reference compound]	–	low affinity	6.5 mg/kg	–	affinity for the D2 receptors (in words) [1]: good affinity
O=C(CCCN1CCC(O)(c2ccc(Cl)cc2)CC1)c1ccc(F)cc1 [haloperidol, reference compound]	–	low affinity	0.46 mg/kg	0.92 mg/kg	–
CNc1cc(OC)c(C(=O)NC2CCN(Cc3ccccc3)C2C)cc1Cl (stereo not shown) [nemonapride, reference compound]	–	high affinity	1.5 mg/kg	5 mg/kg	–

More lines, main results first:

melting point	affinity for the 5-HT1A receptors (in words) [2]	Structure (SMILES)	ED50 [3]	ED50 [4]	further results
141 °C	–	CC1(C)Cc2cccc(OCCNCc3cncc(C4=CCCC4)c3)c2O1 (as salt: fumarate) [Compound 1b, [2-(2,2-Dimethyl-2,3-dihydrobenzofuran-7-yl-oxy)ethyl]-(5-cyclopenten-1-ylpyridin-3-ylmethyl)amine]	–	–	–
133 °C	–	Cc1cc2cccc(OCCNCc3cccc(C4=CCCC4)c3)c2o1 (as salt: fumarate) [Compound 1d, [2-(2-Methylbenzofuran-7-yloxy)ethyl]-(3-cyclopenten-1-ylbenzyl)amine]	–	–	–
118 °C	–	C1=C(c2cccc(CNCCOc3cccc4c3OCC4)c2)CCC1 (as salt: fumarate) [Compound 1e, [2-(2,3-Dihydrobenzofuran-7-yloxy)ethyl]-(3-cyclopenten-1-ylbenzyl)amine]	–	–	–
145 °C	–	CC1(C)Cc2cccc(OCCNCc3cccc(C4=C(F)CCC4)c3)c2O1 (as salt: fumarate) [Compound 1g, [2-(2,2-Dimethyl-2,3-dihydrobenzofuran-7-yl-oxy)ethyl]-[3-(2-fluorocyclopenten-1-yl)benzyl]amine]	–	–	–
180 °C	–	C1=C(c2cccc(CNCCOc3cccc4c3OC3(CC3)C4)c2)CCC1 (as salt: maleate) [Compound 1f]	–	–	–
